IC50 data for 23 molecules are collected here from patent publication US20160130278A1 (TAISHO PHARMACEUTICAL CO., LTD, priority 2013, published 2016).

For orientation: IC50 means the concentration needed to halve the response being measured. A high value points to a need for much substance.

Each structure is given as a SMILES string.

The target in this experiment is T1, human type 1 glycine transporter (GlyT1) (Homo sapiens, UniProt P48067).
T1 construct: T98G cells (glioma cells) expressing human type 1 glycine transporter (GlyT1) were used
T1 sequence (P48067 1-706): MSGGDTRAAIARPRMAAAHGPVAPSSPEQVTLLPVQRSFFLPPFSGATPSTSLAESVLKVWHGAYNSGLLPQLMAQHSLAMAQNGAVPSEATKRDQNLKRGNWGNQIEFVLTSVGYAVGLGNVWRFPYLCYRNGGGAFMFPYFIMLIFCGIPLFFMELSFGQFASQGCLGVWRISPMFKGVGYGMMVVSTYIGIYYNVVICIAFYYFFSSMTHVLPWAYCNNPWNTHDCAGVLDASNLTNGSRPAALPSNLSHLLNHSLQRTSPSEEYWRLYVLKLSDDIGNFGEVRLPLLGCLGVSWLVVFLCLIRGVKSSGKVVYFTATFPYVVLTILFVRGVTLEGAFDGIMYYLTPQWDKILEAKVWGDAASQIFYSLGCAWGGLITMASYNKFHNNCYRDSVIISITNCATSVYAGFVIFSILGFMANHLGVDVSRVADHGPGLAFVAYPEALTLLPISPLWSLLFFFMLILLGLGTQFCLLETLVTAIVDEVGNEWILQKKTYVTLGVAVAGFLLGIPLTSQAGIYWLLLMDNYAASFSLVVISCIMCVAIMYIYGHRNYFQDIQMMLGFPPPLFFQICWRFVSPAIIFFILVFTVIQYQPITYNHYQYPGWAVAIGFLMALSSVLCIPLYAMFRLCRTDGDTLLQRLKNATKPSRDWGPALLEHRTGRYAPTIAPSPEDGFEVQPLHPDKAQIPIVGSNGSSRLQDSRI
Briefly: Glycine uptake inhibition experiment ([3H]glycine uptake). It counts as cell-based. Particulars: GlyT1. The method in brief:
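T98G glioma cells expressing human GlyT1 were pretreated 10 min with compound in HEPES buffer pH 7.4 (0.2% BSA), then incubated with compound plus 250 nM final [3H]glycine for 15 min at room temperature. Intracellular radioactivity was counted after NaOH lysis; 10 μM ALX5407 defined non-specific uptake. IC50 came from 10^−9–10^−5 M curves.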
As for `O=C(NC(c1ccccc1Cl)[C@]1(O)CC[C@@H](F)CC1)c1ccc(C(F)(F)F)nc1Cl` (single isomer, unassigned) [Compound 368, 2-chloro-N-[(2-chlorophenyl)(cis-4-fluoro-1-hydroxycyclohexyl)methyl]-6-(trifluoromethyl)pyridine-3-carboxamide], 0.76 µM corresponded to half-maximal inhibition (IC50).
In the case of `O=C(NC(c1cccc(F)c1Cl)[C@]1(O)CC[C@@H](F)CC1)c1cnc(Cl)cc1-n1nccn1` (single isomer, unassigned) [Compound 369, 6-chloro-N-[(2-chloro-3-fluorophenyl)(cis-4-fluoro-1-hydroxycyclohexyl)methyl]-4-(2H-1,2,3-triazol-2-yl)pyridine-3-carboxamide], the IC50 stood at 1.2 µM.
For `O=C(NC(c1cccc(F)c1Cl)[C@]1(O)CC[C@@H](F)CC1)c1ccc(Cl)nc1-n1nccn1` (single isomer, unassigned) [Compound 370, 6-chloro-N-[(2-chloro-3-fluorophenyl)(cis-4-fluoro-1-hydroxycyclohexyl)methyl]-2-(2H-1,2,3-triazol-2-yl)pyridine-3-carboxamide], the half-maximal inhibitory concentration (IC50) was found to be 3 µM.
The molecule `O=C(NC(c1cccc(F)c1Cl)[C@]1(O)CC[C@@H](F)CC1)c1ncc(Cl)cc1-n1nccn1` (single isomer, unassigned) [Compound 371, 5-chloro-N-[(2-chloro-3-fluorophenyl)(cis-4-fluoro-1-hydroxycyclohexyl)methyl]-3-(2H-1,2,3-triazol-2-yl)pyridine-2-carboxamide] displayed an IC50 of 1.6 µM.
Regarding `CS(=O)(=O)c1ccc(C(F)(F)F)cc1C(=O)NC(c1cccc(F)c1Cl)[C@]1(O)CC[C@@H](F)CC1` (single isomer, unassigned) [Compound 372, N-[(2-chloro-3-fluorophenyl)(cis-4-fluoro-1-hydroxycyclohexyl)methyl]-2-(methylsulfonyl)-5-(trifluoromethyl)benzamide], 0.041 µM corresponded to half-maximal inhibition (IC50).
To `CS(=O)(=O)c1cc(C(F)(F)F)ccc1C(=O)NC(c1cccc(F)c1Cl)[C@]1(O)CC[C@@H](F)CC1` (single isomer, unassigned) [Compound 373, N-[(2-chloro-3-fluorophenyl)(cis-4-fluoro-1-hydroxycyclohexyl)methyl]-2-(methylsulfonyl)-4-(trifluoromethyl)benzamide] belongs 0.1 µM; to `O=C(NC(c1cc(F)ccc1Cl)[C@]1(O)CC[C@@H](F)CC1)c1nccc(C(F)(F)F)c1Cl` (single isomer, unassigned) [Compound 374, 3-chloro-N-[(2-chloro-5-fluorophenyl)(cis-4-fluoro-1-hydroxycyclohexyl)methyl]-4-(trifluoromethyl)pyridine-2-carboxamide], 0.17 µM; to `O=C(NC(c1cc(Cl)ccc1F)[C@]1(O)CC[C@@H](F)CC1)c1nccc(C(F)(F)F)c1Cl` (single isomer, unassigned) [Compound 375, 3-chloro-N-[(5-chloro-2-fluroophenyl)(cis-4-fluoro-1-hydroxycyclohexyl)methyl]-4-(trifluoromethyl)pyridine-2-carboxamide], 0.25 µM.
Molecule `O=C(NC(c1cc(Cl)ccc1F)[C@]1(O)CC[C@@H](F)CC1)c1ccnc(C(F)(F)F)c1Cl` (single isomer, unassigned) [Compound 376, 3-chloro-N-[(5-chloro-2-fluorophenyl)(cis-4-fluoro-1-hydroxycyclohexyl)methyl]-2-(trifluoromethyl)pyridine-4-carboxamide] showed an IC50 of 0.55 µM.
The molecule `O=C(NC(c1cc(Cl)ccc1F)[C@]1(O)CC[C@@H](F)CC1)c1cc(C(F)(F)F)ncc1Cl` (single isomer, unassigned) [Compound 377, 5-chloro-N-[(5-chloro-2-fluorophenyl)(cis-4-fluoro-1-hydroxycyclohexyl)methyl]-2-(trifluoromethyl)pyridine-4-carboxamide] returned an IC50 of 0.92 µM.
To `O=C(NC(c1cc(Cl)ccc1F)[C@]1(O)CC[C@@H](F)CC1)c1cc(C(F)(F)F)cnc1Cl` (single isomer, unassigned) [Compound 378, 2-chloro-N-[(5-chloro-2-fluroophenyl)(cis-4-fluoro-1-hydroxycyclohexyl)methyl]-5-(trifluoromethyl)pyridine-3-carboxamide] belongs 2.3 µM.
The result for `O=C(NC(c1cccc(F)c1Cl)[C@]1(O)CC[C@@H](F)CC1)c1cccc(C(F)(F)F)c1-n1nccn1` (single isomer, unassigned) [Compound 379, N-[(2-chloro-3-fluorophenyl)(cis-4-fluoro-1-hydroxycyclohexyl)methyl]-2-(2H-1,2,3-triazol-2-yl)-3-(trifluoromethyl)benzamide] reads 0.79 µM.
The result for `O=C(NC(c1cccc(F)c1Cl)[C@]1(O)CC[C@@H](F)CC1)c1ccc(C(F)(F)F)cc1-n1nccn1` (single isomer, unassigned) [Compound 380, N-[(2-chloro-3-fluorophenyl)(cis-4-fluoro-1-hydroxycyclohexyl)methyl]-2-(2H-1,2,3-triazol-2-yl)-4-(trifluoromethyl)benzamide] reads 0.27 µM; that for `O=C(NC(c1cccc(F)c1Cl)[C@]1(O)CC[C@@H](F)CC1)c1cc(C(F)(F)F)ccc1-n1nccn1` (single isomer, unassigned) [Compound 381, N-[-(2-chloro-3-fluorophenyl)(cis-4-fluoro-1-hydroxycyclohexyl)methyl]-2-(2H-1,2,3-triazol-2-yl)-5-(trifluoromethyl)benzamide], 1.2 µM; that for `CN(C(=O)c1nccc(C(F)(F)F)c1Cl)C(c1cccc(F)c1Cl)[C@]1(O)CC[C@@H](F)CC1` (single isomer, unassigned) [Compound 382, 3-chloro-N-[(2-chloro-3-fluorophenyl)(cis-4-fluoro-1-hydroxycyclohexyl)methyl]-N-methyl-4-(trifluoromethyl)pyridine-2-carboxamide], 0.74 µM.
`O=C(NC(c1cccc(Cl)n1)C1(O)CCCCC1)c1nccc(C(F)(F)F)c1Cl` (single isomer, unassigned) [Compound 384, 3-chloro-N-[(6-chloropyridin-2-yl)(1-hydroxycyclohexyl)methyl]-4-(trifluoromethyl)pyridine-2-carboxamide] came in with an IC50 of 0.0094 µM.
`O=C(NC(c1cccc(Cl)n1)C1(O)CCCCC1)c1ccnc(C(F)(F)F)c1Cl` (single isomer, unassigned) [Compound 385, 3-chloro-N-[(6-chloropyridin-2-yl)(1-hydroxycyclohexyl)methyl]-2-(trifluoromethyl)pyridine-4-carboxamide] gave an IC50 of 0.026 µM.
As for `CS(=O)(=O)c1cnc(C(F)(F)F)cc1C(=O)NC(c1cccc(F)c1Cl)[C@]1(O)CC[C@@H](F)CC1` (single isomer, unassigned) [Compound 386, N-[(2-chloro-3-fluorophenyl)(cis-4-fluoro-1-hydroxycyclohexyl)methyl]-5-(methylsulfonyl)-2-(trifluoromethyl)pyridine-4-carboxamide], inhibition was half-maximal at 0.035 µM (IC50).
Take `CS(=O)(=O)c1ncc(C(F)(F)F)cc1C(=O)NC(c1cccc(F)c1Cl)[C@]1(O)CC[C@@H](F)CC1` (single isomer, unassigned) [Compound 387, N-[(2-chloro-3-fluorophenyl)(cis-4-fluoro-1-hydroxycyclohexyl)methyl]-2-(methylsulfonyl)-5-(trifluoromethyl)pyridine-3-carboxamide]: the IC50 worked out at 0.036 µM.
With `CS(=O)(=O)c1nc(C(F)(F)F)ccc1C(=O)NC(c1cccc(F)c1Cl)[C@]1(O)CC[C@@H](F)CC1` (single isomer, unassigned) [Compound 388, N-[(2-chloro-3-fluorophenyl)(cis-4-fluoro-1-hydroxycyclohexyl)methyl]-2-(methylsulfonyl)-6-(trifluoromethyl)pyridine-3-carboxamide], the IC50 is 0.26 µM.
For the molecule `CS(=O)(=O)c1cc(C(F)(F)F)cnc1C(=O)NC(c1cccc(F)c1Cl)[C@]1(O)CC[C@@H](F)CC1` (single isomer, unassigned) [Compound 389, N-[(2-chloro-3-fluorophenyl)(cis-4-fluoro-1-hydroxycyclohexyl)methyl]-3-(methylsulfonyl)-5-(trifluoromethyl)pyridine-2-carboxamide], half-maximal inhibition (IC50) required 1.8 µM.
In turn, `O=C(NC(c1cccc(F)c1Cl)[C@]1(O)CC[C@@H](F)CC1)c1ccc(C(F)(F)F)cc1-n1cccn1` (single isomer, unassigned) [Compound 390, N-[(2-chloro-3-fluorophenyl)(cis-4-fluoro-1-hydroxycyclohexyl)methyl]-2-(1H-pyrazol-1-yl)-4-(trifluoromethyl)benzamide] came in with a 50% inhibitory concentration (IC50) of 0.13 µM.
As to `O=C(NC(c1cccc(F)c1Cl)[C@]1(O)CC[C@@H](F)CC1)c1ccc(C(F)(F)F)cc1-n1cnnn1` (single isomer, unassigned) [Compound 391, N-[(2-chloro-3-fluorophenyl)(cis-4-fluoro-1-hydroxycyclohexyl)methyl]-2-(1H-tetrazol-1-yl)-4-(trifluoromethyl)benzamide], the 50% inhibitory concentration (IC50) turned out to be 0.027 µM.
